Where two headings read alike, the source gives them in different places.
How the values were obtained:
human MCH-1 receptor [1] = target: T1, human MCH-1 receptor (Homo sapiens, UniProt Q99705); experiment: Phosphatidylinositol (IP3) assay, MCH-stimulated turnover; format: cell-based
T1 construct: expressed in transfected cells; host or cells: transiently transfected COS-7 cells or stably transfected CHO cells (pcDNA3.1)
Description: (§1) Transfections and Tissue Culture—The cDNA encoding the human MCH-1 receptor was cloned from a human brain cDNA library and cloned into the eukaryotic expression vector pcDNA3.1 (Invitrogen). Assays were performed on transiently transfected COS-7 cells or stably transfected CHO (Chinese Hamster Ovary) cells, expressing the human MCH-1 receptor in pcDNA3.1. […] Clones were screened by a MCH receptor radioligand binding assay (as described below).
Phosphatidylinositol assay—To assay phosphatidylinositol turnover, transiently transfected COS-7 cells or stably transfected CHO cells, expressing human MCH-1 receptor (2×10^5 cells/well) were incubated for 24 h with 5 μCi of (^3H]-myo-inositol (Amersham Pharmacia Biotech) in 0.5 ml inositol-free culture medium. Cells were washed twice in PI-buffer: 20 mM HEPES, pH 7.4, supplemented with 140 mM NaCl, 5 mM KCl, 1 mM MgSO4, 1 mM CaCl2, 10 mM glucose, 0.02% (w/v) bovine serum; and were incubated in 0.5 ml PI-buffer supplemented with 10 mM LiCl at 37° C. for 45 min.
Phosphatidylinositol turnover was stimulated by submaximal concentrations of MCH, i.e. 10 nM in the presence of increasing amounts of ligand. The ligand was added 5 min. before adding the agonist (MCH). Cells were extracted with 10 mM ice-cold Formic acid, and the generated [^3H]-inositol phosphates were purified on Bio-Rad AG 1-X8 anion-exchange resin. Determinations were made in duplicate. PI data were analyzed and IC50 values determined by non-linear regression using the Prism software (GraphPad software, San Diego).

human MCH-1 receptor [2] = target: T1, human MCH-1 receptor; experiment: MCH receptor binding ([125I]-MCH competition binding / SPA)
Description: as §1
Radioligand Binding Assay—Transiently transfected COS-7 cells or stably transfected CHO cells, expressing human MCH-1 receptor were seeded in multi-well culture plates one day before the assay. The number of cells per well was determined by the apparent expression efficiency of the cell line aiming at 5-10% binding of the added radioligand. […] The assay was performed in duplicate. Nonspecific binding was determined as the binding in the presence of 1 μM MCH (Bachem). Binding data were analyzed and IC50 values determined by non-linear regression using the Prism software (GraphPad software, San Diego). Values of the dissociation and inhibition constants (Kd and Ki) were estimated from competition binding using the equations Kd=IC50-L and Ki=IC50/(1+L/Kd), respectively, where L is the concentration of radioligand.
Membranes and beads were pre-incubated for 20 min. […] Moreover, CHO-K1 membranes expressing the hMCH receptor were purchased from Euroscreen (ES-370-M) and a final concentration of 2 μg/well were used. Binding data were analyzed and IC50 values determined by non-linear regression using the Prism software (GraphPad software, San Diego). Values of the inhibition constant (Ki) were estimated from competition binding using the equation Ki=IC50/(1+L/Kd), where L and Kd are the concentration and affinity constant, respectively, of the radioligand.

HERG channels [3] = target: T2, HERG channels (Homo sapiens, UniProt Q12809)
[4] = risk of Torsades de Pointes, from www.torsades.org; cited from earlier work
HERG channels [5] = target: T2, HERG channels; experiment: HERG selectivity method, whole-cell patch-clamp recordings
[6] = stimulated by 10 nM MCH, read-out: IP3 IC50
For Risk Group in this document: key: 1: Drugs that are generally accepted by authorities to have a risk of Torsades de Pointes (TdP); 2: Drugs that in some reports may be associated with TdP but at this time lack substantial evidence; 4: Drugs that, in some reports, have been weakly associated with TdP but that when used in usual dosages are unlikely to be a risk for TdP.

T2 sequence (Q12809 whole entry): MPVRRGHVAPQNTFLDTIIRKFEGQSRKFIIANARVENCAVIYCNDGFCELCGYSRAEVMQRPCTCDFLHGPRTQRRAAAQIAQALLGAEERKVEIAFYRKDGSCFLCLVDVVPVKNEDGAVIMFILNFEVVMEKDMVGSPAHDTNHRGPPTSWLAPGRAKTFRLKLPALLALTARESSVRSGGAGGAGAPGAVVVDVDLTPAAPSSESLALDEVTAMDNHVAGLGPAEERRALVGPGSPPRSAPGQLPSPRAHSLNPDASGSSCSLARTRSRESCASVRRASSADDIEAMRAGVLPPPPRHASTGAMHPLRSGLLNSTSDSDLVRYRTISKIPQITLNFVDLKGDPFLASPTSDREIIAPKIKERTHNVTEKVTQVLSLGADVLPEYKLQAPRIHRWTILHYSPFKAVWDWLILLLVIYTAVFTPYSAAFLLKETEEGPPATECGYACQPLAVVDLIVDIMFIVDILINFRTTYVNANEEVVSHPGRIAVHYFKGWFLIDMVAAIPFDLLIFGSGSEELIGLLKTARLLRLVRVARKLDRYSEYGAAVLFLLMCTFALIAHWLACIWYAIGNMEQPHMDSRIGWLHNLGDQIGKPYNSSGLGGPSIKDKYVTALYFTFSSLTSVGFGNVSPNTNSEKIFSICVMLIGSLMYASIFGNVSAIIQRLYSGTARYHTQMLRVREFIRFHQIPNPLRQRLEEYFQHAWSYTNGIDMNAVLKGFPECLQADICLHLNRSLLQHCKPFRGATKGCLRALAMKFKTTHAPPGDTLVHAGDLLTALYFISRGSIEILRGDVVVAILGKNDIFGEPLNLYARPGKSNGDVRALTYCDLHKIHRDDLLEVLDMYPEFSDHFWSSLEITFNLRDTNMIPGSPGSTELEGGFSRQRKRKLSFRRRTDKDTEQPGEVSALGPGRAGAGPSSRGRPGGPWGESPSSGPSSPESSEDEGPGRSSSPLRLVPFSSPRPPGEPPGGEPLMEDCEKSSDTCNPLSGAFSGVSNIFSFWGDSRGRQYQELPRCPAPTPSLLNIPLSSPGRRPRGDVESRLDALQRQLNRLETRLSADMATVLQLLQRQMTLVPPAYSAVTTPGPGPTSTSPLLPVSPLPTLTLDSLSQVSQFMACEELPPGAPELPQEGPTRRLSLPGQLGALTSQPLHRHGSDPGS
T1 sequence (Q99705 whole entry): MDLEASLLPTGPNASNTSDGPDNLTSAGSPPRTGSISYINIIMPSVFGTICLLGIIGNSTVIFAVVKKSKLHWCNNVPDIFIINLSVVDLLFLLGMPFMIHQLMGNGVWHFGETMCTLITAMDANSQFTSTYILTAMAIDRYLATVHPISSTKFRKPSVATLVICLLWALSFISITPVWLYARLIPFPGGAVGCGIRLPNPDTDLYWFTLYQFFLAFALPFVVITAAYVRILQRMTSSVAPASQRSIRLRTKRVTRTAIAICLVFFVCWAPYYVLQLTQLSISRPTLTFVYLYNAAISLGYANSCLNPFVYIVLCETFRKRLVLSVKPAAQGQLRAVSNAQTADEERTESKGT

| SMILES | IC50 (human MCH-1 receptor [1]; [6]) | IC50 (human MCH-1 receptor [2]) | Risk Group [4] | other results |
| --- | --- | --- | --- | --- |
| Cc1cc(N2CCN(C)CC2)nc2ccc(NC(=O)C(C)Oc3ccc(Cl)cc3Cl)cc12 (stereo not drawn) | 2000 nM | 280 nM | – | – |
| CC(C)NCC(O)c1ccc(NS(C)(=O)=O)cc1 (racemic) [(±) sotalol] | – | – | 1 | Ki in μM ± S.D. (#) (HERG channels [3]): No effect at 100 (5) |
| CCCCc1oc2ccccc2c1C(=O)c1cc(I)c(OCCN(CC)CC)c(I)c1 [Amiodarone] | – | – | 1 | – |
| CN(C)CCC=C1c2ccccc2CCc2ccccc21 [Amitriptyline] | – | – | 4 | – |
| Clc1ccc2c(c1)C(N1CCNCC1)=Nc1ccccc1O2 [Amoxapine] | – | – | 4 | – |
| CC(C)COCC(CN(Cc1ccccc1)c1ccccc1)N1CCCC1 (stereo not drawn) [Bepridil] | – | – | 1 | – |
| CN1CCN(C(c2ccccc2)c2ccc(Cl)cc2)CC1 (stereo not drawn) [Chlorcyclizine] | – | – | – | Ki (HERG channels [5]): 4 ± 1.4 µM |
| CN(C)CCCN1c2ccccc2Sc2ccc(Cl)cc21 [Chlorpromazine] | – | – | 1 | – |
| CN1CCN(CC/C=C2/c3ccccc3Sc3ccc(S(=O)(=O)N(C)C)cc32)CC1 [Cis-Thiothixene] | – | – | – | Ki (HERG channels [5]; read-out: Ki in μM ± S.D. (#), HEK 293 cells stably expressing HERG+KCNE1, tail-current block, room temperature, Ki=koff/kon): 8.6 ± 2.7 µM |
| CNCCCN1c2ccccc2CCc2ccccc21 [Desipramine] | – | – | 4 | – |
| CN(C)CCC=C1c2ccccc2COc2ccccc21 [Doxepine] | – | – | 4 | – |
| Cc1cc(N2CCN(C)CC2)nc2ccc(NC(=O)/C=C/c3ccc(OC(F)(F)F)cc3)cc12 [Example 16, (E)-N-[4-Methyl-2-(4-methyl-piperazin-1-yl)-quinolin-6-yl]-3-(4-trifluoromethoxy-phenyl)-acrylamide] | 42 nM | 11 nM | – | – |
| Cc1cc(N2CCCNCC2)nc2ccc(NC(=O)COc3ccc(OC(F)(F)F)cc3)cc12 [Example 25, N-(2-[1,4]Diazepan-1-yl-4-methylquinolin-6-yl)-2-(4-trifluoromethoxyphenoxy)-acetamide] | 71 nM | 12 nM | – | – |
| Cc1cc(N2CCC(N)CC2)nc2ccc(NC(=O)COc3ccc(Cl)cc3Cl)cc12 [Example 33, N-[2-(4-Amino-piperidin-1-yl)-4-methyl-quinolin-6-yl]-2-(2,4-dichloro-phenoxy)-acetamide] | 63 nM | 41 nM | – | – |
| Cc1cc(N2CCN(CCO)CC2)nc2ccc(NC(=O)COc3ccc(OC(F)(F)F)cc3)cc12 [Example 38, N-{2-[4-(2-Hydroxy-ethyl)-piperazin-1-yl]-4-methyl-quinolin-6-yl}-2-(4-trifluoromethoxy-phenoxy)-acetamide] | 23 nM | 50 nM | – | – |
| Cc1cc(NCCN(C(C)C)C(C)C)nc2ccc(NC(=O)COc3ccc(OC(F)(F)F)cc3)cc12 [Example 40, N-[2-(2-Diisopropylamino-ethylamino)-4-methyl-quinolin-6-yl]-2-(4-trifluoromethoxy-phenoxy)-acetamide] | – | 22 nM | – | – |

| SMILES | IC50 (human MCH-1 receptor [1]; [6]) | IC50 (human MCH-1 receptor [2]) | Risk Group [4] | other results |
| --- | --- | --- | --- | --- |
| Cc1cc(NCCN2CCOCC2)nc2ccc(NC(=O)COc3ccc(OC(F)(F)F)cc3)cc12 [Example 42, N-[4-Methyl-2-(2-morpholin-4-yl-ethylamino)-quinolin-6-yl]-2-(4-trifluoromethoxy-phenoxy)-acetamide] | 16 nM | 10 nM | – | – |
| Cc1cc(NCC(C)(C)CN(C)C)nc2ccc(NC(=O)COc3ccc(OC(F)(F)F)cc3)cc12 [Example 45, N-[2-(3-Dimethylamino-2,2-dimethyl-propylamino)-4-methyl-quinolin-6-yl]-2-(4-trifluoromethoxy-phenoxy)-acetamide] | 190 nM | 21 nM | – | – |
| CCN1CCCC1CNc1cc(C)c2cc(NC(=O)/C=C/c3ccc(OC(F)(F)F)cc3)ccc2n1 (stereo not drawn) [Example 62, (E)-N-{2-[(1-Ethyl-pyrrolidin-2-ylmethyl)-amino]-4-methyl-quinolin-6-yl}-3-(4-trifluoromethoxy-phenyl)-acrylamide] | 10 nM | 13 nM | – | – |
| Cc1cc(OCCN(C)C)nc2ccc(NC(=O)COc3ccc(Cl)cc3Cl)cc12 [Example 76, 2-(2,4-Dichloro-phenoxy)-N-[2-(2-dimethylamino-ethoxy)-4-methyl-quinolin-6-yl]-acetamide] | – | – | – | IC50 (human MCH-1 receptor [1]): 135 nM |
| Cc1cc(N(C)CCN(C)C)nc2ccc(NC(=O)CCc3ccc(OC(F)(F)F)cc3)cc12 [Example 98, N-{2-[(2-Dimethylamino-ethyl)-methyl-amino]-4-methyl-quinolin-6-yl}-3-(4-trifluoromethoxy-phenyl)-propionamide] | 720 nM | 37 nM | – | – |
| Cc1nc(N(C)CCCN(C)C)nc2ccc(NC(=O)COc3ccc(Cl)cc3Cl)cc12 [Example 137, 2(2,4-Dichlorophenoxy)N{2[(3-dimethylaminopropyl)methyl-amino]-4-methyl-quinazolin-6-yl}-acetamide] | 63 nM | 10 nM | – | – |
| Cc1cc(N(C)CCN(C)C)nc2ccc(NC(=O)c3ccc(-c4ccc(C(F)(F)F)cc4)cc3)cc12 [Example 183, 4′-Trifluoromethyl-biphenyl-4-carboxylic acid {2-[(2-dimethylamino-ethyl)-methyl-amino]-4-methyl-quinolin-6-yl}-amide] | 474 nM | 63 nM | – | – |
| CNCCC(Oc1ccc(C(F)(F)F)cc1)c1ccccc1 (stereo not drawn) [Fluoxetine] | – | – | 4 | – |
| OCCN1CCN(CCCN2c3ccccc3Sc3ccc(C(F)(F)F)cc32)CC1 [Fluphenazine] | – | – | – | Ki (HERG channels [5]): 2.5 ± 0.57 µM |
| O=C(CCCN1CCC(O)(c2ccc(Cl)cc2)CC1)c1ccc(F)cc1 [Haloperidole] | – | – | 1 | Ki (HERG channels [3]): 170 nM |
| CN(C)CCCN1c2ccccc2CCc2ccccc21 [Imipramine] | – | – | 4 | – |
| CC(=O)N1CCN(c2ccc(OCC3COC(Cn4ccnc4)(c4ccc(Cl)cc4Cl)O3)cc2)CC1 (stereo not drawn) [Ketoconazole] | – | – | 4 | – |
| O=c1[nH]c2ccccc2n1C1CCN(CCCC(c2ccc(F)cc2)c2ccc(F)cc2)CC1 [Pimozide] | – | – | 1 | – |
| Cc1nc2n(c(=O)c1CCN1CCC(c3noc4cc(F)ccc34)CC1)CCCC2 [Risperidone] | – | – | 2 | – |
| CC(CN(C)C)CN1c2ccccc2CCc2ccccc21 (stereo not drawn) [Trimipramine] | – | – | 4 | Ki in μM ± S.D. (#) (HERG channels [3]): No effect at 10 |

Source: US20060111357A1, “Quinoline compounds for use in mch receptor related disorders” (priority 2003, published 2006)
